Results reported in patent US11656221B2, “Methods to identify modulators of actin-binding proteins” (Regents of the University of Minnesota, priority 2019, dated 2023).
“Also recorded” adds a separate entry of the source.

Columns and labels:
[1] = target: T1, ternary complex consisting of GFP-ABD-L253P, Lifeact-mCherry, and actin (Homo sapiens, UniProt O15020, L253P); experiment: Primary live-cell time-resolved FRET assay (GFP-ABD-L253P plus Lifeact-mCherry); format: cell-based; details: for effect on FRET in primary screen (Hit, 4SD threshold): LOPAC compounds 10 μM, 120 min
T1 construct: L252P β-III-spectrin (human) ABD residues 1-284; expressed in transfected cells; host or cells: HEK293-6E, pTT5 vector, transient

ABD-L253P = target: T2, ABD-L253P (Homo sapiens, UniProt O15020, L253P); experiment: Sedimentation of ABD L253P without actin (aggregation); details: 10 μM
T2 construct: His-SUMO (cleaved yes); made in house; host or cells: E. coli BL21(DE3), pE-SUMOpro
Experimental: (§1) F-actin and ABD binding assays were performed as previously described. In brief, binding assays used 1 μM ABD protein, 1 μM F-actin and 1-50 μM compound (as indicated) or DMSO control for a total reaction volume of 60 μL in F-buffer containing 10 mM Tris, pH 7.5, 150 mM NaCl, 0.5 mM ATP, 2 mM MgCl2, and 1 mM DTT. Following 30 min incubation at room temperature (21° C.). F-actin was pelleted using centrifugation at 100,000×g at 25° C. for 30 min. Unbound ABD in the supernatant was measured following SDS-PAGE and Coomassie blue staining in accord. In addition, control co-sedimentations assays that lacked actin were performed to test if compounds cause ABD aggregation. F-actin and Lifeact-mCherry binding assays were undertaken with 2 μM Lifeact-mCherry, 30 μM F-actin and 1-50 μM compound (as indicated) or DMSO control for a total reaction volume of 80 μL in F-buffer. For a no-actin binding control, an assay sample with no F-actin was also set up. Binding reactions were allowed to reach equilibrium at room temperature (21° C.) for 30 min and then F-actin was pelleted by centrifugation at 100,000×g at 25° C. for 30 min. The amount of unbound Lifeact-mCherry was sampled by loading 7 μL of spin supernatant on a low volume black bottom 384-well plate (Greiner). Amount of mCherry was determined by acquiring fluorescence spectrum peak intensity at ˜600 nm using a spectral unmixing plate reader (Fluorescence Innovations, Inc) equipped with a 532 nm laser (Laserglow Technologies, Ontario, Canada) for excitation, 532 nm longpass filter for emission, and PMT for emission detection. The fraction of Lifeact-mCherry bound to F-actin was determined by subtracting from one the fraction of supernatant fluorescence intensity relative to the no-actin control sample, using the following equation: […]
In addition to a reduction in cell viability, the primary and counter screen may be sensitive to compounds that promote ABD-L253P protein aggregation. […] Our ABD-L253P to actin co-sedimentation assay is unlikely to be sensitive to ABD aggregation, as it is set up to monitor maximal sedimentation of ABD-L253P with actin at ˜90% ABD-L253P co-sedimenting. To directly measure the impact of 10 μM Hit compounds on ABD aggregation, we repeated the ABD-actin co-sedimentation without actin present.

[2] = target: T3, Lifeact-mCherry binding to F-actin (Oryctolagus cuniculus, UniProt P68135); experiment: F-actin and Lifeact-mCherry co-sedimentation assay; set-up: species or system New Zealand white rabbit (Oryctolagus cuniculus)
T3 construct: Actin was purified from acetone powder derived from the psoas muscle; made in house; host or cells: actin from rabbit psoas muscle; Lifeact-mCherry from E. coli, pE-SUMOpro
Experimental: (§2) Actin was purified from acetone powder derived from the psoas muscle of New Zealand white rabbit (Oryctolagus cuniculus). Filamentous (F)-actin was stored for up to 3 days on ice before use in binding assays. Within an hour of the binding assay, the F-actin was clarified at 100,000×g at 4° C. for 10 min prior to setting up binding assays. The L253P β-III-spectrin ABD was expressed in E. coli BL21(DE3) (Novagen). The ABD was purified and the His-SUMO tag proteolytically removed, as previously described, except size-exclusion chromatography was not performed due to the high purity of the ABD protein. Lifeact-mCherry protein was similarly prepared. A Bradford assay was performed to determine clarified F-actin and ABD protein concentrations.
F-actin and ABD binding assays were performed as previously described. In brief, binding assays used 1 μM ABD protein, 1 μM F-actin and 1-50 μM compound (as indicated) or DMSO control for a total reaction volume of 60 μL in F-buffer containing 10 mM Tris, pH 7.5, 150 mM NaCl, 0.5 mM ATP, 2 mM MgCl2, and 1 mM DTT. Following 30 min incubation at room temperature (21° C.). F-actin was pelleted using centrifugation at 100,000×g at 25° C. for 30 min. Unbound ABD in the supernatant was measured following SDS-PAGE and Coomassie blue staining in accord. In addition, control co-sedimentations assays that lacked actin were performed to test if compounds cause ABD aggregation. F-actin and Lifeact-mCherry binding assays were undertaken with 2 μM Lifeact-mCherry, 30 μM F-actin and 1-50 μM compound (as indicated) or DMSO control for a total reaction volume of 80 μL in F-buffer. For a no-actin binding control, an assay sample with no F-actin was also set up. Binding reactions were allowed to reach equilibrium at room temperature (21° C.) for 30 min and then F-actin was pelleted by centrifugation at 100,000×g at 25° C. for 30 min. The amount of unbound Lifeact-mCherry was sampled by loading 7 μL of spin supernatant on a low volume black bottom 384-well plate (Greiner). Amount of mCherry was determined by acquiring fluorescence spectrum peak intensity at ˜600 nm using a spectral unmixing plate reader (Fluorescence Innovations, Inc) equipped with a 532 nm laser (Laserglow Technologies, Ontario, Canada) for excitation, 532 nm longpass filter for emission, and PMT for emission detection. The fraction of Lifeact-mCherry bound to F-actin was determined by subtracting from one the fraction of supernatant fluorescence intensity relative to the no-actin control sample, using the following equation:
[formula] • Where Fcontrol/DMSO is the peak mCherry fluorescence of assay samples containing compound or DMSO control, and Fno-actin is the peak mCherry fluorescence of assay samples that contained no F-actin. 2.9 Trypan Blue Cell Viability Assays

HEK293-6E cells = experiment: Trypan blue cell viability assay; format: cell-based
Experimental: HEK293-6E cell viability was measured using trypan blue (0.03%) staining and a Countess Automated Cell counter (Invitrogen). Non-transfected HEK293-6E cells were spun at 100×g for 5 min at 21° C., and resuspended in 10 mL of PBS. The centrifugation and resuspension were repeated twice more. Final cell concentration was 1×10^6 cells/mL. Cells were incubated with 2% DMSO, or 3-50 μM compound (as indicated) for 3 hrs at room temperature (21° C.). After addition of 100 μL of 0.06% trypan blue solution in PBS, 10 μL was loaded on a slide and injected into the cell counter, and cell viability was measured.

[3] = target: T4, ABD-L253P (L253P β-III-spectrin ABD) binding to F-actin (Homo sapiens, UniProt O15020, L253P); experiment: F-actin and ABD co-sedimentation assay; details: 50 μM, 1 μM ABD, 1 μM F-actin
T4 construct: His-SUMO (cleaved yes); made in house; host or cells: E. coli BL21(DE3), pE-SUMOpro; actin from rabbit psoas muscle
Experimental: as §2
as §1, with “F-actin and Lifeact-mCherry binding assays were undertaken with 2 μM Lifeact-mCherry, 30 μM F-actin and 1-50 μM compound (as indicated) or DMSO control for a total reaction volume of 80 μL in F-buffer. For a no-actin binding control, an assay sample with no F-actin was also set up. Binding reactions were allowed to reach equilibrium at room temperature (21° C.) for 30 min and then F-actin was pelleted by centrifugation at 100,000×g at 25° C. for 30 min. The amount of unbound Lifeact-mCherry was sampled by loading 7 μL of spin supernatant on a low volume black bottom 384-well plate (Greiner).” left out

T1 sequence (O15020 1-284 L253P, one chain of several): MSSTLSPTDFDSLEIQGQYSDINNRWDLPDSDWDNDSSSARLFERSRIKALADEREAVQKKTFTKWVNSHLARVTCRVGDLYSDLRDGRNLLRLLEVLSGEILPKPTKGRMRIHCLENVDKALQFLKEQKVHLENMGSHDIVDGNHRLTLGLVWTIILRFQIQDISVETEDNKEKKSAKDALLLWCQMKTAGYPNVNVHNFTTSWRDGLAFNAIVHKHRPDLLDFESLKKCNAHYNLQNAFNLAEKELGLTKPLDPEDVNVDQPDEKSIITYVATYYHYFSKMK
T2 sequence (O15020 1-284 L253P): as the sequence (O15020 1-284 L253P, one chain of several) above
T4 sequence (O15020 1-284 L253P): as the sequence (O15020 1-284 L253P, one chain of several) above

For `CC(C)(C)c1ccc(/C=C/C(=O)Nc2ccc3c(c2)OCCO3)cc1` [AMG 9810], the “effect on FRET in primary screen (Hit, 4SD threshold)” value (“effect on FRET in primary screen” for short) [1] was “decrease FRET” and the “ABD L253P aggregation (pelleting without actin)” value (ABD-L253P) was “increases ABD pelleting; also recorded: promote aggregation”.
For `CC(C)(Sc1ccc(CCN(CCCCC2CCCCC2)C(=O)NC2CCCCC2)cc1)C(=O)O` [GW7647], the “effect on FRET in primary screen” value [1] was “decrease FRET”, the “effect on Lifeact-mCherry binding with actin” value (shortened to “effect … with actin”) ([2]; 10 μM) was “decreased actin-Lifeact co-sedimentation; also recorded: reduce Lifeact-mCherry binding with actin” and the “effect on HEK293-6E cell viability” value (HEK293-6E cells; 10 μM, 3 hr incubation) was “dramatically reduced cell viability; also recorded: reduces HEK293-6E cell viability”. The “ABD L253P aggregation (pelleting without actin)” value (ABD-L253P) was “increases ABD pelleting; also recorded: promote aggregation”.
`O=C(O)c1cc([N+](=O)[O-])ccc1NCCCc1ccccc1` [NPPB] was tested, and the “effect on FRET in primary screen” value [1] was “decrease FRET”, the “effect … with actin” value ([2]; 10 μM) was “decreased actin-Lifeact co-sedimentation; also recorded: reduce Lifeact-mCherry binding with actin” and the “ABD L253P aggregation (pelleting without actin)” value (ABD-L253P) was “promote aggregation”. For the same molecule, the “ABD L253P aggregation (pelleting without actin)” value (ABD-L253P; listed as NBBP) was “increases ABD pelleting”.
With `CCCc1c(-c2ccc(O)cc2)nn(-c2ccc(O)cc2)c1-c1ccc(O)cc1` [PPT] the “effect on FRET in primary screen” value [1] was “decrease FRET” and the “ABD L253P aggregation (pelleting without actin)” value (ABD-L253P) was “increases ABD pelleting; also recorded: promote aggregation”.
With `CCCCCCCC/C=C\CCCCCCCC(=O)NCc1ccc(O)c(OC)c1` [olvanil] the “effect on FRET in primary screen” value [1] was “decrease FRET” and the “ABD L253P aggregation (pelleting without actin)” value (ABD-L253P) was “increases ABD pelleting; also recorded: promote aggregation”.
`[H]/N=C(/NCCCCC)N/N=C/c1c[nH]c2ccc(OC)cc12` [tegaserod] was tested, and the “reduction of total FRET” value ([1]; 50 μM, HEK293-6E cells, relative to DMSO) was 83%, the “effect on ABD-L253P binding to actin” value [3] was “did not alter; also recorded: no significant effect” and the “effect … with actin” value ([2]; 50 μM) was “did not alter and not”. For the same molecule, the “decrease in cell viability” value (HEK293-6E cells; 50 μM, 3 hrs) was 92% and the “effect on HEK293-6E cell viability” value (HEK293-6E cells; 50 μM, 3 hrs) was “greatly diminished cell viability; also recorded: abolishes HEK293-6E cell viability”.
